Assay results reported in the NIST ThermoML archive (doi:10.1007/s10765-005-5566-6).

Assay: xn = mol fraction of the nth substance listed
Details: Gas, Hot wire method

C [methane] + O=C=O
Details	thermal conductivity [W/m/K]
375 K, 919 kPa, x1 = 0.2493	0.02872
375 K, 919 kPa, x1 = 0.4994	0.03475
375 K, 930 kPa, x1 = 0.7496	0.04098
375 K, 1460 kPa, x1 = 0.2493	0.02883
375 K, 1528 kPa, x1 = 0.7496	0.04104
375 K, 1578 kPa, x1 = 0.4994	0.0348
375 K, 1986 kPa, x1 = 0.2493	0.02895
375 K, 2135 kPa, x1 = 0.7496	0.04117
375 K, 2220 kPa, x1 = 0.4994	0.03492
375 K, 2510 kPa, x1 = 0.2493	0.02913
375 K, 2740 kPa, x1 = 0.7496	0.04129
375 K, 2840 kPa, x1 = 0.4994	0.0352
375 K, 3015 kPa, x1 = 0.2493	0.02945
375 K, 3310 kPa, x1 = 0.7496	0.04145
375 K, 3480 kPa, x1 = 0.4994	0.03545
375 K, 3510 kPa, x1 = 0.2493	0.0297
375 K, 3915 kPa, x1 = 0.7496	0.04181
375 K, 4005 kPa, x1 = 0.2493	0.02993
375 K, 4100 kPa, x1 = 0.4994	0.03561
375 K, 4490 kPa, x1 = 0.7496	0.04204
375 K, 4500 kPa, x1 = 0.2493	0.0302
375 K, 4715 kPa, x1 = 0.4994	0.03598
375 K, 4975 kPa, x1 = 0.2493	0.03051
375 K, 5440 kPa, x1 = 0.2493	0.03075
375 K, 5855 kPa, x1 = 0.4994	0.03682
375 K, 6910 kPa, x1 = 0.7496	0.04355
375 K, 6930 kPa, x1 = 0.4994	0.03739
375 K, 8000 kPa, x1 = 0.4994	0.03823
375 K, 9330 kPa, x1 = 0.7496	0.04538
375 K, 11600 kPa, x1 = 0.7496	0.04722
400 K, 983 kPa, x1 = 0.2493	0.03152
400 K, 986 kPa, x1 = 0.4994	0.03807
400 K, 993 kPa, x1 = 0.7496	0.04503
400 K, 1410 kPa, x1 = 0.2493	0.0316
400 K, 1690 kPa, x1 = 0.4994	0.03812
400 K, 1700 kPa, x1 = 0.7496	0.04501
400 K, 1820 kPa, x1 = 0.2493	0.03172
400 K, 2230 kPa, x1 = 0.2493	0.03183
400 K, 2378 kPa, x1 = 0.4994	0.03826
400 K, 2393 kPa, x1 = 0.7496	0.04519
400 K, 2635 kPa, x1 = 0.2493	0.03187
400 K, 3040 kPa, x1 = 0.2493	0.03201
400 K, 3061 kPa, x1 = 0.4994	0.03844
400 K, 3115 kPa, x1 = 0.7496	0.04526
400 K, 3435 kPa, x1 = 0.2493	0.03228
400 K, 3740 kPa, x1 = 0.4994	0.03866
400 K, 3770 kPa, x1 = 0.7496	0.04535
400 K, 3850 kPa, x1 = 0.2493	0.03241
400 K, 4240 kPa, x1 = 0.2493	0.03258
400 K, 4390 kPa, x1 = 0.4994	0.03887
400 K, 4460 kPa, x1 = 0.7496	0.04578
400 K, 4615 kPa, x1 = 0.2493	0.03271
400 K, 5060 kPa, x1 = 0.4994	0.03918
400 K, 5140 kPa, x1 = 0.7496	0.04598
400 K, 5667 kPa, x1 = 0.4994	0.03961
400 K, 6180 kPa, x1 = 0.4994	0.0398
400 K, 6670 kPa, x1 = 0.7496	0.04688
400 K, 6710 kPa, x1 = 0.4994	0.04014
400 K, 8110 kPa, x1 = 0.7496	0.04756
400 K, 9545 kPa, x1 = 0.7496	0.04861
425 K, 1048 kPa, x1 = 0.2493	0.03418
425 K, 1050 kPa, x1 = 0.4994	0.04164
425 K, 1050 kPa, x1 = 0.7496	0.04889
425 K, 1530 kPa, x1 = 0.2493	0.03411
425 K, 1799 kPa, x1 = 0.4994	0.04146
425 K, 1810 kPa, x1 = 0.7496	0.04908
425 K, 1938 kPa, x1 = 0.2493	0.03436
425 K, 2390 kPa, x1 = 0.2493	0.03434
425 K, 2554 kPa, x1 = 0.4994	0.04156
425 K, 2558 kPa, x1 = 0.7496	0.04898
425 K, 2810 kPa, x1 = 0.2493	0.03448
425 K, 3260 kPa, x1 = 0.2493	0.03452
425 K, 3260 kPa, x1 = 0.4994	0.04176
425 K, 3300 kPa, x1 = 0.7496	0.04919
425 K, 3690 kPa, x1 = 0.2493	0.03472
425 K, 4000 kPa, x1 = 0.4994	0.04192
425 K, 4050 kPa, x1 = 0.7496	0.04919
425 K, 4120 kPa, x1 = 0.2493	0.0349
425 K, 4540 kPa, x1 = 0.2493	0.03506
425 K, 4730 kPa, x1 = 0.4994	0.04207
425 K, 4800 kPa, x1 = 0.7496	0.0498
425 K, 4960 kPa, x1 = 0.2493	0.0353
425 K, 5460 kPa, x1 = 0.4994	0.04245
425 K, 5520 kPa, x1 = 0.7496	0.05001
425 K, 6410 kPa, x1 = 0.4994	0.04284
425 K, 7380 kPa, x1 = 0.4994	0.04335
425 K, 7670 kPa, x1 = 0.7496	0.05089
425 K, 8310 kPa, x1 = 0.4994	0.04385
425 K, 9820 kPa, x1 = 0.7496	0.05188
425 K, 11970 kPa, x1 = 0.7496	0.05348
